Key:
Format in all cases: physicochemical
[1] = Second-order rate constant of IEDDA reaction of TCO with tetrazine 2.1 in MeCN by UV-Vis; settings: activator 2.1; in MeCN at 20 °C; second-order conditions
Procedure: (§1) The second-order rate constant of the IEDDA reaction of 3,6-dimethyl-1,2,4,5-tetrazine (2.1) or 3,6-di(pyridin-2-yl)-1,2,4,5-tetrazine (2.2) and a compound of the disclosure in MeCN at 20 °C was determined by UV-Vis spectrometry under second-order reaction conditions (n=1). A cuvette was filled with a solution of 3,6-dimethyl-1,2,4,5-tetrazine or 3,6-di(pyridin-2-yl)-1,2,4,5-tetrazine (3 mL 0.083 mM in MeCN), and equilibrated at 20 °C. Next, a solution of the compound of the disclosure (10.0 μL 25 mM in acetonitrile, 2.50×10^−7 mol) was added, and the solution was quickly homogenized and inserted in the UV spectrometer. The absorption at λ=540 nm (specific for the tetrazine moiety) was measured every second in a time course experiment. From the decay of this absorption, the conversion was calculated. The second-order rate constant k2 was determined from the slope of the curve of a plot of 1/c −1/c0 versus time.

[2] = Second-order rate constant of IEDDA reaction of TCO with tetrazine 2.2 in MeCN by UV-Vis; settings: activator 2.2; in MeCN at 20 °C; second-order conditions
Procedure: as §1

[3] = Releasing activity of s-TCO derivatives on reaction with 3,6-dimethyl-1,2,4,5-tetrazine (HPLC-MS PDA); settings: acetonitrile/PBS; for formation of the (pyridazine) elimination product: after 30 min
Procedure: To a stock solution of 1.7 (10 uL 17.8 mM in DMSO, 1.78×10^−7 mol) was added acetonitrile (0.2 mL), PBS (0.8 mL), and a stock solution of 3,6-dimethyl-1,2,4,5-tetrazine (7.1 uL 25 mM in DMSO, 1.78×10^−7 mol). […] ESI-MS: m/z Calc. for C18H21N3O4 343.15 Da; Obs. [M+H]^+ 344.25 Da, max=243 nm.
To a solution of 1.21 (3.75×10^−7 mol) in acetonitrile (0.2 mL) was added PBS (0.8 mL), and a stock solution of 3,6-dimethyl-1,2,4,5-tetrazine (20 uL 25 mM in DMSO, 5.0×10^−7 mol). […] ESI-MS: m/z Calc. for C18H21N3O4 343.15 Da; Obs. [M+H]^+ 344.25 Da, λmax=250 nm.
To a solution of 1.22 (3.75×10-8 mol) in acetonitrile (0.02 mL) was added PBS (0.08 mL), and a stock solution of 3,6-dimethyl-1,2,4,5-tetrazine (2 uL 25 mM in DMSO, 5.0×10-8 mol).

Compound | Rate constants k2 [1] [M⁻¹ s⁻¹] | Rate constants k2 [2] [M⁻¹ s⁻¹] | disappearance of the pink color (tetrazine consumption) [3] | formation of the (pyridazine) elimination product [3]
O=C1O[C@@H]2C=CCCC[C@@H]3[C@H]1[C@@H]32 (stereo in doubt) [Compound 1.17a, (1R,2S,8R,11S,E)-9-Oxatricyclo[6.3.0.0^2,11]undec-6-en-10-one] | 11.5 | 1100 |  | 
O=C1O[C@@H]2C=CCCC[C@@H]3[C@H]1[C@@H]32 (stereo in doubt) [Compound 1.17b, (1R,2S,8R,11S,E)-9-Oxatricyclo[6.3.0.0^2,11]undec-6-en-10-one] | 8.7 |  |  | 
COC(=O)[C@@H]1[C@@H]2C/C=C/[C@H](O)CC[C@@H]21 [Compound 1.6b, Methyl (1R,5R,8S,9S,E)-5-hydroxybicyclo[6.1.0]non-3-ene-9-carboxylate] | 3.3 |  |  | 
CN(Cc1ccccc1)C(=O)O[C@H]1/C=C/C[C@@H]2[C@H](CC1)[C@@H]2C(=O)ON1C(=O)CCC1=O [Compound 1.7, 2,5-Dioxopyrrolidin-1-yl (1R,5R,8S,9S,E)-5-((benzyl(methyl)carbamoyl)oxy)bicyclo[6.1.0]non-3-ene-9-carboxylate] | 2.9 | 375 | within minutes | quantitative formation
COC(=O)[C@H]1[C@H]2CCC/C=C/[C@@H](O)[C@H]21 [Compound 1.16a, Methyl (1R,2R,8S,9S,E)-2-hydroxybicyclo[6.1.0]non-3-ene-9-carboxylate] | 7.0 |  |  | 
COC(=O)[C@H]1[C@H]2CCC/C=C/[C@@H](O)[C@H]21 [Compound 1.16b, Methyl (1R,2R,8S,9S,E)-2-hydroxybicyclo[6.1.0]non-3-ene-9-carboxylate] | 0.3 |  |  | 
CN(Cc1ccccc1)C(=O)O[C@@H]1/C=C/CCC[C@@H]2[C@H](C(=O)ON3C(=O)CCC3=O)[C@@H]21 [Compound 1.21, 2,5-Dioxopyrrolidin-1-yl (1R,2R,8S,9S,E)-2-((benzyl(methyl)carbamoyl)oxy)bicyclo[6.1.0]non-3-ene-9-carboxylate] | 8.0 | 605 | within minutes | quantitative formation

— US20260365688A1, “STRAINED BICYCLONONENES” (TAGWORKS PHARMACEUTICALS B.V., priority 2022, published 2026)
